Test results taken from patent US11299467B2 (Antabio SAS, priority 2017, dated 2022).
Converted amounts (≈) assume the structure as drawn. Where two headings read alike, the source gives them in different places.

Assays:
Assay type in all cases: cell-based
[1] = tested on: NTBC020 (E. coli strain expressing NDM-1, TEM-1 and CTX-M-15); assay: Meropenem MIC, broth micro-dilution, NTBC020; conditions: Escherichia coli, read-out: MIC mero
Description: (§1) The experiments were carried out using the ‘broth micro-dilution method’ according to the protocols M07-A8 established by the Clinical Laboratory Standards Institute (CLSI). Serial dilutions of the β-lactam antibiotic (Meropenem) were prepared in 96-well plates in cation-adjusted Mueller-Hinton broth (CAMHB); the concentration range was defined from 0.03 mg/L to 512 mg/L. The compounds were added at a constant concentration of 8 μg/mL. A bacterial inoculum of each strain (clinical isolates) was adjusted to a 0.5 McFarland turbidity standard in physiologic serum (0.9% NaCl), then diluted 1:100 in CAMHB and added to each well to give a final bacterial cell number of 5×10^5 CFU/well. After incubation for 18-20 hours in a heating chamber at 37° C., the growth inhibition was evaluated by the absence of any bacterial development.
(§2) Compounds of the invention were tested at a constant concentration of 8 μg/mL. […]
(§3) Experiments were carried out using the ‘broth micro-dilution method’ according to the protocols M07-A8 established by the Clinical Laboratory Standards Institute (CLSI). […] After incubation for 18-20 hours in a heating chamber at 37° C., the growth inhibition was evaluated by the absence of any bacterial development. […]

[2] = tested on: NTBC104-1 (K. pneumoniae strain expressing NDM-1 and SHV-11); assay: Meropenem MIC, broth micro-dilution, NTBC104-1; conditions: Klebsiella pneumoniae
Description: as §1
Compounds of the invention were tested at a constant concentration of 8 μg/mL. The clinical strains used in these potentiation experiments were NTBC020 (E. coli strain expressing NDM-1, TEM-1 and CTX-M-15); NTBC035-2 (K. pneumoniae strain expressing NDM-1, CMY-4 and SHV-11); NTBC104-1 (K. pneumoniae strain expressing NDM-1 and SHV-11); NTBC123 (K. pneumoniae strain expressing NDM-1); NTBC018 (C. freundii strain expressing VIM-2); NTBC024 (K. pneumoniae strain expressing VIM-19, TEM-1 and CTX-M-3); NTBC042 (E. coli strain expressing VIM-1, TEM-1, CTX-M-15, SHV-12); NTBC055 (E. Coli strain expressing VIM-1); NTBC062 (K. pneumoniae strain expressing IMP-1 and TEM-1) and NTBC039 (K. oxytoca strain expressing IMP-28).
Mice were infected in the thigh with K. pneumoniae NTBC104. […] The MIC of meropenem in the presence of 8 ug/mL of the compound of Example 2 is 4 ug/mL.
as §3

[3] = tested on: NTBC024 (K. pneumoniae strain expressing VIM-19, TEM-1 and CTX-M-3); assay: Meropenem MIC, broth micro-dilution, NTBC024; conditions: Klebsiella pneumoniae, read-out: MIC mero
Description: as §1, §2, §3

[4] = tested on: NTBC062 (K. pneumoniae strain expressing IMP-1 and TEM-1); assay: Meropenem MIC, broth micro-dilution, NTBC062; conditions: Klebsiella pneumoniae, read-out: MIC mero
Description: as §1, §2, §3

[5] = tested on: NTBC091-1 (E. coli strain expressing KPC-2 and TEM-1); assay: Meropenem MIC, broth micro-dilution, NTBC091-1; conditions: Escherichia coli, read-out: MIC mero
Description: as §1, with “Experiments” for “The experiments”, “meropenem (mero)” for “the β-lactam antibiotic (Meropenem)”, “compounds (the compound of Example 2, above, and/or WCK4234)” for “compounds”, “the” for “a constant”, “indicated in the table below.” for “of 8 μg/mL.”
(§4) NTBC091-1 (E. coli strain expressing KPC-2 and TEM-1); NTBC093 (E. cloacae strain expressing KPC-2 and TEM-1); NTBC096-1 (K. pneumonia strain expressing OXA-181 and SHV-11); NTBC099 (K. pneumonia strain expressing KPC-3, SHV-11 and TEM-1); and NTBC189 (K. pneumonia strain expressing TEM-OSBL, CTX-M-14 and OXA-48).

[6] = tested on: NTBC093 (E. cloacae strain expressing KPC-2 and TEM-1); assay: Meropenem MIC, broth micro-dilution, NTBC093; conditions: Enterobacter cloacae, read-out: MIC mero
Description: as §1, with “Experiments” for “The experiments”, “meropenem (mero)” for “the β-lactam antibiotic (Meropenem)”, “compounds (the compound of Example 2, above, and/or WCK4234)” for “compounds”, “the” for “a constant”, “indicated in the table below.” for “of 8 μg/mL.”
as §4

[7] = tested on: NTBC096-1 (K. pneumonia strain expressing OXA-181 and SHV-11); assay: Meropenem MIC, broth micro-dilution, NTBC096-1; conditions: Klebsiella pneumoniae, read-out: MIC mero
Description: as §1, with “Experiments” for “The experiments”, “meropenem (mero)” for “the β-lactam antibiotic (Meropenem)”, “compounds (the compound of Example 2, above, and/or WCK4234)” for “compounds”, “the” for “a constant”, “indicated in the table below.” for “of 8 μg/mL.”
as §4

[8] = tested on: NTBC189 (K. pneumonia strain expressing TEM-OSBL, CTX-M-14 and OXA-48); assay: Meropenem MIC, broth micro-dilution, NTBC189; conditions: Klebsiella pneumoniae, read-out: MIC mero
Description: as §1, with “Experiments” for “The experiments”, “meropenem (mero)” for “the β-lactam antibiotic (Meropenem)”, “compounds (the compound of Example 2, above, and/or WCK4234)” for “compounds”, “the” for “a constant”, “indicated in the table below.” for “of 8 μg/mL.”
as §4

[9] = tested on: NTBC187 (K. pneumonia strain expressing SHV-OSBL, NDM-1 and OXA-48); assay: Meropenem MIC, broth micro-dilution, NTBC187; conditions: Klebsiella pneumoniae, read-out: MIC mero
Description: as §1, with “Experiments” for “The experiments”, “meropenem (mero)” for “the β-lactam antibiotic (Meropenem)”, “compounds (the compound of Example 2, above, and/or WCK4234)” for “compounds”, “the” for “a constant”, “indicated in the table below.” for “of 8 μg/mL.”
(§5) NTBC019 (K. pneumonia strain expressing NDM-1, CTX-M-15 and OXA-181); NTBC185 (K. pneumonia strain expressing SHV-OSBL, TEM-OSBL, NDM-1 and OXA-48); NTBC186 (K. pneumonia strain expressing ACT-TYPE, VIM-1 and OXA-48); NTBC187 (K. pneumonia strain expressing SHV-OSBL, NDM-1 and OXA-48); and NTBC188 (K. pneumonia strain expressing NDM-1 and KPC-2).

[10] = tested on: NTBC188 (K. pneumonia strain expressing NDM-1 and KPC-2); assay: Meropenem MIC, broth micro-dilution, NTBC188; conditions: Klebsiella pneumoniae
Description: as §1, with “Experiments” for “The experiments”, “meropenem (mero)” for “the β-lactam antibiotic (Meropenem)”, “compounds (the compound of Example 2, above, and/or WCK4234)” for “compounds”, “the” for “a constant”, “indicated in the table below.” for “of 8 μg/mL.”
as §5
Experiments were conducted as described above. Compounds (the compounds of Examples 2 and 26) were tested at 8 μg/mL. […] MIC values were determined for […]

C[C@@H](O)[C@H]1C(=O)N2C(C(=O)O)=C(S[C@@H]3CN[C@H](C(=O)N(C)C)C3)[C@H](C)[C@H]12 [Meropenem]
MIC [1]: 128 µg/mL
MIC ([2]; read-out: MIC mero): 64 µg/mL
MIC ([2]; read-out: MIC of meropenem against K. pneumoniae NTBC104): 64 µg/mL
MIC [3]: 16 µg/mL
MIC [4]: 4 µg/mL
MIC [5]: 4 µg/mL (≈ 10.4 µM)
MIC [6]: 128 µg/mL (≈ 334 µM)
MIC [7]: 16 µg/mL (≈ 41.7 µM)
MIC [8]: 16 µg/mL (≈ 41.7 µM)
MIC [9]: 128 µg/mL (≈ 334 µM)
MIC ([10]; read-out: MIC mero): 32 µg/mL (≈ 83.4 µM)
MIC ([10]; read-out: MIC, NTBC188): 8 to 512 µg/mL (≈ 20.9 to 1340 µM)
